Measurements taken from ChEMBL document CHEMBL5390280, “Design, Synthesis, and Biological Evaluation of an Orally Bioavailable, Potent, and Selective ROCK2 Inhibitor for Psoriasis Treatment” (J Med Chem, 2023).
Converted amounts (≈) assume the structure as drawn. The source made the active and inactive calls. The calls are words filed in the database; no cut-off is given here.

Columns and labels:
[1] = Tmax in Balb/c mouse at 40 mg/kg, po measured for 0.08 to 24 hrs by LC-MS/MS analysis; assay type: ADME, organism-based; conditions: in vivo, time 0.08-24 hrs
[2] = test system: Mus musculus; test: Anti-inflammatory activity in Balb/c mouse model of IMQ-induced skin inflammation assessed as decrease in serum IL-17F level at 80 mg/kg, po administered daily for 7 days by IHC analysis; assay type: functional, organism-based; conditions: time 7.0 day
[3] = test system: Mus musculus; test: Anti-inflammatory activity in Balb/c mouse model of IMQ-induced skin inflammation assessed as decrease in IL-17F mRNA level in dorsal skin at 80 mg/kg, po administered daily for 7 days by RT-qPCR analysis; assay type: functional, organism-based; conditions: time 7.0 day
[4] = Toxicity in Balb/c mouse model of IMQ-induced skin inflammation assessed as reduction in spleen index administered orally daily for 7 days; assay type: tissue-based; conditions: in vivo, po, 168 h, dose 40-80 mg/kg, time 7 day
[5] = test system: Mus musculus; test: Anti-inflammatory activity in Balb/c mouse model of IMQ-induced skin inflammation assessed as decrease in Ki67+ cells in dermis of dorsal skin at 80 mg/kg, po administered daily for 7 days by IHC analysis; assay type: functional, organism-based; conditions: time 7.0 day
[6] = test system: Mus musculus; test: Anti-inflammatory activity in Balb/c mouse model of IMQ-induced skin inflammation assessed as decrease in IL-17A+ T cells in dorsal skin administered orally daily for 7 days by high power field microscopy; assay type: functional, organism-based; conditions: T-cell, dose 20-80 mg/kg, route po, time 7.0 day
[7] = AUC (0 to infinity) in Balb/c mouse at 40 mg/kg, po measured for 0.08 to 24 hrs by LC-MS/MS analysis; assay type: ADME, organism-based; parameters: time 0.08-24 hrs, dose 40 mg/kg, route po; conditions: in vivo
[8] = test system: Mus musculus; test: Anti-inflammatory activity in Balb/c mouse model of IMQ-induced skin inflammation assessed as reduction in skin swelling at 20 to 80 mg/kg, po administered daily for 7 days; assay type: functional, organism-based; conditions: dose 20-80 mg/kg, time 7.0 day
[9] = Toxicity in Balb/c mouse model of IMQ-induced skin inflammation assessed as body weight loss at 80 mg/kg, po administered daily for 7 days; assay type: organism-based; conditions: in vivo, 168 h, time 7 day
[10] = AUC (0 to infinity) in Balb/c mouse at 10 mg/kg, iv measured for 0.08 to 24 hrs by LC-MS/MS analysis; assay type: ADME, organism-based; parameters: dose 10 mg/kg, time upper 24 hrs, time lower 0.08 hrs, route iv; conditions: in vivo
[11] = Cmax in Balb/c mouse at 40 mg/kg, po measured for 0.08 to 24 hrs by LC-MS/MS analysis; assay type: ADME, organism-based; parameters: time lower 0.08 hrs, dose 40 mg/kg, time upper 24 hrs, route po; conditions: in vivo
[12] = test system: Mus musculus; test: Anti-inflammatory activity in Balb/c mouse model of IMQ-induced skin inflammation assessed as decrease in IL-23 mRNA level in dorsal skin at 20 to 40 mg/kg, po administered daily for 7 days by RT-qPCR analysis; assay type: functional, organism-based; conditions: dose 20-40 mg/kg, time 7.0 day
[13] = test system: Mus musculus; test: Anti-inflammatory activity in Balb/c mouse model of IMQ-induced skin inflammation assessed as decrease in IL-23 mRNA level in dorsal skin at 80 mg/kg, po administered daily for 7 days by RT-qPCR analysis; assay type: functional, organism-based; conditions: time 7.0 day
[14] = test system: Mus musculus; test: Anti-inflammatory activity in Balb/c mouse model of IMQ-induced skin inflammation assessed as decrease in serum IL-17F level at 40 mg/kg, po administered daily for 7 days by IHC analysis; assay type: functional, organism-based; conditions: time 7.0 day
[15] = Selectivity ratio of IC50 for ROCK1 (unknown origin) to IC50 for ROCK2 (unknown origin)
[16] = test system: HaCaT; test: Anti-psoriasis effect in KGF-stimulated human HaCaT cells assessed as decrease in MMP-2 level at 2 to 5 uM incubated for 24 hrs by Western blot analysis; assay type: functional, cell-based; conditions: dose 2-5 µM
[17] = test system: HaCaT; test: Anti-psoriasis effect in KGF-stimulated human HaCaT cells assessed as decrease in fibronectin level at 2 to 5 uM incubated for 24 hrs by Western blot analysis; assay type: functional, cell-based; conditions: dose 2-5 µM
[18] = test system: Mus musculus; test: Anti-inflammatory activity in Balb/c mouse model of IMQ-induced skin inflammation assessed as reduction in skin roughness at 20 to 80 mg/kg, po administered daily for 7 days; assay type: functional, organism-based; conditions: dose 20-80 mg/kg, time 7.0 day
[19] = test system: Mus musculus; test: Anti-inflammatory activity in Balb/c mouse model of IMQ-induced skin inflammation assessed as decrease in IL-22 mRNA level in dorsal skin at 20 to 40 mg/kg, po administered daily for 7 days by RT-qPCR analysis; assay type: functional, organism-based; conditions: dose 20-40 mg/kg, time 7.0 day
[20] = Chemical stability of compound in PBS at pH 7.4 assessed as compound remaining measured after 10 days; assay type: physicochemical; conditions: time 10 day, read-out: Stability
[21] = test system: HaCaT; test: Anti-psoriasis effect in KGF-stimulated human HaCaT cells assessed as decrease in elastin level at 2 to 5 uM incubated for 24 hrs by Western blot analysis; assay type: functional, cell-based; conditions: dose 2-5 µM
[22] = Solubility in aqueous buffer at pH 7.4; assay type: physicochemical
[23] = test system: Mus musculus; test: Anti-inflammatory activity in Balb/c mouse model of IMQ-induced skin inflammation assessed as reduction in epidermal thickness of dorsal skin at 40 to 80 mg/kg, po administered daily for 7 days by H and E staining based analysis; assay type: functional, organism-based; conditions: dose 40-80 mg/kg, time 7.0 day
[24] = test system: Mus musculus; test: Anti-inflammatory activity in Balb/c mouse model of IMQ-induced skin inflammation assessed as decrease in IL-17A mRNA level in dorsal skin at 20 to 40 mg/kg, po administered daily for 7 days by RT-qPCR analysis; assay type: functional, organism-based; conditions: dose 20-40 mg/kg, time 7.0 day
[25] = AUC (0 to t) in Balb/c mouse at 40 mg/kg, po measured for 0.08 to 24 hrs by LC-MS/MS analysis; assay type: ADME, organism-based; parameters: time 0.08-24 hrs, dose 40 mg/kg, route po; conditions: in vivo
[26] = test system: HaCaT; test: Anti-psoriasis effect in KGF-stimulated human HaCaT cells assessed as decrease in N-cadherin level at 2 to 5 uM incubated for 24 hrs by Western blot analysis; assay type: functional, cell-based; conditions: dose 2-5 µM
[27] = test system: Mus musculus; test: Anti-inflammatory activity in Balb/c mouse model of IMQ-induced skin inflammation assessed as decrease in IL-17F mRNA level in dorsal skin at 20 to 40 mg/kg, po administered daily for 7 days by RT-qPCR analysis; assay type: functional, organism-based; conditions: dose 20-40 mg/kg, time 7.0 day
[28] = test system: Mus musculus; test: Anti-inflammatory activity in Balb/c mouse model of IMQ-induced skin inflammation assessed as decrease in KGF mRNA level in dorsal skin at 40 to 80 mg/kg, po administered daily for 7 days by RT-qPCR analysis; assay type: functional, organism-based; conditions: dose 40-80 mg/kg, time 7.0 day
[29] = Lipophilicity, log D of the compound at pH 7.4; assay type: physicochemical; conditions: buffer
[30] = Clearance in Balb/c mouse at 10 mg/kg, iv measured for 0.08 to 24 hrs by LC-MS/MS analysis; assay type: ADME, organism-based; conditions: in vivo, time 0.08-24 hrs
[31] = molecular target: Rho-associated protein kinase 2 (Homo sapiens, UniProt O75116); test: Inhibition of ROCK2 (unknown origin) by HTRF assay
Sequence of Rho-associated protein kinase 2 (O75116 whole entry): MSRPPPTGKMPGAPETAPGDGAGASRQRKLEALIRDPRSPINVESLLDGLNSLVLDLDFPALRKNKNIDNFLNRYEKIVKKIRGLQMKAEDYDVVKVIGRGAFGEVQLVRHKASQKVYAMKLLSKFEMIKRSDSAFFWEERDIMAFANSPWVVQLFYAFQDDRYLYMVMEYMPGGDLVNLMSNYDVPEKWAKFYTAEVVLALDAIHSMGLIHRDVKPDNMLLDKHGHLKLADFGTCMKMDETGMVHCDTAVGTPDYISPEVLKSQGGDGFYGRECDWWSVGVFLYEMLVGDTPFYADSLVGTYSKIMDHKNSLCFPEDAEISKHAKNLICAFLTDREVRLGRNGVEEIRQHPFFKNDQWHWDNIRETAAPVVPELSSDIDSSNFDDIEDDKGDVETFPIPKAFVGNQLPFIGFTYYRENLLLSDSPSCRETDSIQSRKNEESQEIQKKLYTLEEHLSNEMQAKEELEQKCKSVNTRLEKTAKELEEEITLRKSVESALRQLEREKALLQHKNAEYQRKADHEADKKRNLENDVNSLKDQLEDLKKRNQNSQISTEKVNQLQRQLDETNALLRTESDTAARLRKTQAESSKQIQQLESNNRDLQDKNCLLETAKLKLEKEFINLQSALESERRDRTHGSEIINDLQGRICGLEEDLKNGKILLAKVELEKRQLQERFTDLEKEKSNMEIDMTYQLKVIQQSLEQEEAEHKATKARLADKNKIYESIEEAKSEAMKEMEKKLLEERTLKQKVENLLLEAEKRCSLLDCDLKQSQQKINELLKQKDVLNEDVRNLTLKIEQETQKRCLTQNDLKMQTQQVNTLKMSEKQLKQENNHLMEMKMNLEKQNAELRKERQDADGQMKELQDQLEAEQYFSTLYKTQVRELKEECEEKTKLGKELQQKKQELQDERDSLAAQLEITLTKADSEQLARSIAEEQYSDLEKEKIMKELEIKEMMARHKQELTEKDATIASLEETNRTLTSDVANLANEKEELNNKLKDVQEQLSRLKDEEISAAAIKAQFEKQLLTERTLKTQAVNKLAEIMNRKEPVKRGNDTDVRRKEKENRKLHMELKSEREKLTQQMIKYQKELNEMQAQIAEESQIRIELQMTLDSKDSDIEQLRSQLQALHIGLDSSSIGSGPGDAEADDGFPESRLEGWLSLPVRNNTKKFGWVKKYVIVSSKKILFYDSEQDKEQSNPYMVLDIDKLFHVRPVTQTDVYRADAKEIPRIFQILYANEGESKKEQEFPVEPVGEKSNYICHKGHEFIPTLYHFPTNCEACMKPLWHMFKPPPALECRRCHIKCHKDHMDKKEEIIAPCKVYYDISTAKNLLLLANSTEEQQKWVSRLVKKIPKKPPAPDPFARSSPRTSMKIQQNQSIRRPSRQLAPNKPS

[32] = test system: Mus musculus; test: Anti-inflammatory activity in Balb/c mouse model of IMQ-induced skin inflammation assessed as decrease in CD3+ T cells in dorsal skin at 20 to 80 mg/kg, po administered daily for 7 days by high power field microscopy; assay type: functional, organism-based; conditions: T-cell, dose 20-80 mg/kg, time 7.0 day
[33] = test system: Mus musculus; test: Anti-inflammatory activity in Balb/c mouse model of IMQ-induced skin inflammation assessed as decrease in IL-22 mRNA level in dorsal skin at 80 mg/kg, po administered daily for 7 days by RT-qPCR analysis; assay type: functional, organism-based; conditions: time 7.0 day
[34] = Half life in Balb/c mouse at 40 mg/kg, po measured for 0.08 to 24 hrs by LC-MS/MS analysis; assay type: ADME, organism-based; conditions: in vivo, time 0.08-24 hrs

SMILES: Cc1cc(=O)n(-c2cccc(CN[C@H]3CCC[C@H](Nc4ccc5[nH]ncc5c4)C3)c2)cc1F
- Tmax [1]: 15 min
- Activity [2]: inactive
- Activity [3]: inactive
- Activity [4]: Dose-Dependent Effect
- Activity [5]: Active
- Activity [6]: Dose-Dependent Effect
- AUC(0-inf) [7]: 302 ng·h/mL
- Activity [8]: Active
- Activity [9]: Non-Toxic
- AUC(0-inf) [10]: 1060 ng·h/mL
- Cmax [11]: 226 ng/mL
- Activity [12]: Active
- Activity [13]: Active
- Activity [14]: Active
- Ratio IC50 [15]: 19
- Activity [16]: Active
- Activity [17]: Active
- Activity [18]: Active
- Activity [19]: Active
- remaining at 240 h [20]: 100%
- Activity [21]: Active
- solubility [22]: 193 µg/mL (≈ 433 µM)
- Activity [23]: Active
- Activity [24]: Active
- AUC(0-t) [25]: 300 ng·h/mL
- Activity [26]: Active
- Activity [27]: Active
- Activity [28]: Active
- logD [29]: 0.84
- clearance [30]: 158 mL/min/kg
- IC50 [31]: 3.7 nM
- Activity [32]: Active
- Activity [33]: Active
- half-life [34]: 75.6 min
